21 compounds from patent US8153593B2, “Transglutaminase inhibitors and methods of use thereof” (The Board of Trustees of the Leland Stanford Junior …, priority 2003, dated 2012) can be followed below.

As a reminder, the Ki is the equilibrium dissociation constant of an inhibitor or competing ligand from its target.

Structures are written as SMILES.

In the first test the target is T1, recombinant human tissue transglutaminase (Homo sapiens, UniProt P21980).
T1 construct: made in house
T1 sequence (P21980 1-687): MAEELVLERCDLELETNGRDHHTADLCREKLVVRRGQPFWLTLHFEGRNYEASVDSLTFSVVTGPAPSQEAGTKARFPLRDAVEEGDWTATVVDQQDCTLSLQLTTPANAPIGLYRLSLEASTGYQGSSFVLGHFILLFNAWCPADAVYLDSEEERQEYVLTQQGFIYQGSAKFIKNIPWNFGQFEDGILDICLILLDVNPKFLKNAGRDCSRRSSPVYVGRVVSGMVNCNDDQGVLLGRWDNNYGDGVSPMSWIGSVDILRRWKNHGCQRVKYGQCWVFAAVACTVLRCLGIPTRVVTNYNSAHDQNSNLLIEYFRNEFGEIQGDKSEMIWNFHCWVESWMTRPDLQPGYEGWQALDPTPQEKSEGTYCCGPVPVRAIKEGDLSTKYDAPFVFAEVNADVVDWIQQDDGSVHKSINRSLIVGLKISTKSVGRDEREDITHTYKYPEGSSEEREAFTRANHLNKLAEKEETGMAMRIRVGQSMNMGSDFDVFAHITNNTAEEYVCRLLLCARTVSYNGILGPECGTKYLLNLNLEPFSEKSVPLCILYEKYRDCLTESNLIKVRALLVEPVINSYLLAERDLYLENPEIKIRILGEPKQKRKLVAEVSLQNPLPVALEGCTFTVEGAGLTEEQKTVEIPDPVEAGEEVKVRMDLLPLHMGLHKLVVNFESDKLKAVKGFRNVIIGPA
Kind of test: tTGase inhibition assay, residual activity by glutamate dehydrogenase coupled assay. The class given is biochemical. To be noted: Table 3.
Consider `O=C(NCC1CC(Br)=NO1)[C@@H]1CCCN1C(=O)OCc1cnc2ccccc2c1` (stereo in doubt) [ERW1041E, 2-[(3-Bromo-4,5-dihydro-isoxazol-5-ylmethyl)-carbamoyl]-pyrrolidine-1-carboxylic acid quinolin-3-ylmethyl ester], for which the Ki is 953 µM, the kinh turned out to be 2.856 min⁻¹ and the kinh/KI was 3000 /Mmin.
Turning to `O=C(NC(Cc1c[nH]c2ccc(F)cc12)C(=O)NCC1CC(Br)=NO1)OCc1ccccc1` (stereo not drawn) [ERW903, [1-[(3-Bromo-4,5-dihydro-isoxazol-5-ylmethyl)-carbamoyl]-2-(5-fluoro-1H-indol-3-yl)-ethyl]-carbamic acid benzyl ester], the kinh/KI is listed as <1200 >1200 <1200 <1200 /Mmin.
As to `O=C(NC(Cc1ccc(O)cc1)C(=O)NCC1CC(Br)=NO1)OCc1cnc2ccccc2c1` (stereo not drawn) [ERW1041A, [1-[(3-Bromo-4,5-dihydro-isoxazol-5-ylmethyl)-carbamoyl]-2-(4-hydroxy-phenyl)-ethyl]-carbamic acid quinolin-3-ylmethyl ester], the Ki worked out at 63.1 µM, the kinh was determined as 0.184 min⁻¹ and the kinh/KI is recorded as 2900 /Mmin.
On to `O=C(NC(Cc1c[nH]c2ccc(O)cc12)C(=O)NCC1CC(Br)=NO1)OCc1cnc2ccccc2c1` (stereo not drawn) [ERW1041B, [1-[(3-Bromo-4,5-dihydro-isoxazol-5-ylmethyl)-carbamoyl]-2-(5-hydroxy-1H-indol-3-yl)-ethyl]-carbamic acid quinolin-3-ylmethyl ester], for which the Ki is 1380 µM, the kinh is 2.57 min⁻¹ and the kinh/KI is 1850 /Mmin.
On to `COc1ccc2[nH]cc(CC(NC(=O)OCc3cnc4ccccc4c3)C(=O)NCC3CC(Br)=NO3)c2c1` (stereo not drawn) [ERW1041D, [1-[(3-Bromo-4,5-dihydro-isoxazol-5-ylmethyl)-carbamoyl]-2-(5-methoxy-1H-indol-3-yl)-ethyl]-carbamic acid quinolin-3-ylmethyl ester], for which the Ki came to 173 µM, the kinh was determined as 0.283 min⁻¹ and the kinh/KI was 1600 /Mmin.
Take `O=C(NCC1CC(Br)=NO1)C1Cc2ccccc2N1C(=O)OCc1ccccc1` (stereo not drawn) [ERW1045, 2-[(3-Bromo-4,5-dihydro-isoxazol-5-ylmethyl)-carbamoyl]-2,3-dihydro-indole-1-carboxylic acid benzyl ester]: the kinh/KI is given as <1200 /Mmin.
Consider `O=C(NC(Cc1c[nH]c2ccc(F)cc12)C(=O)NCC1CC(Br)=NO1)OCc1cnc2ccccc2c1` (stereo not drawn) [ERW1069, [1-[(3-Bromo-4,5-dihydro-isoxazol-5-ylmethyl)-carbamoyl]-2-(5-fluoro-1H-indol-3-yl)-ethyl]-carbamic acid quinolin-3-ylmethyl ester], for which the Ki was 4.9 µM, the kinh stood at 0.1314 min⁻¹ and the kinh/KI is 26800 /Mmin.

Staying with this test, now noted: dihydroisoxazoles, Table 1.
Turning to `COC(=O)[C@H](CCC(=O)NCC1CC(Br)=NO1)NC(=O)OCc1ccccc1` (stereo partly drawn) [Compound 50, (S)-2-Benzyloxycarbonylamino-4-[(3-bromo-4,5-dihydro-isoxazol-5-ylmethyl)-carbamoyl]-butyric acid methyl ester], the Ki amounted to 1600 µM, the kinh worked out at 0.32 min⁻¹ and the kinh/Ki is 200 min^−1M^−1.
As for `COC(=O)[C@H](CC(=O)NCC1CC(Br)=NO1)NC(=O)OCc1ccccc1` (stereo partly drawn) [Compound 51, (S)-2-Benzyloxycarbonylamino-N-(3-bromo-4,5-dihydro-isoxazol-5-ylmethyl)-succinamic acid methyl ester], the inhibition constant (Ki) was determined as 870 µM, the kinh came out at 0.43 min⁻¹ and the kinh/Ki turned out to be 490 min^−1M^−1.
For `O=C(N[C@@H](Cc1ccccc1)C(=O)OCC1CC(Br)=NO1)OCc1ccccc1` (stereo partly drawn) [Compound 52, (S)-2-Benzyloxycarbonylamino-3-phenyl-propionic acid 3-bromo-4,5-dihydro-isoxazol-5-ylmethyl ester], the Ki is 1300 µM, the kinh was 0.32 min⁻¹ and the kinh/Ki came to 230 min^−1M^−1.
In the same order, the values of `C[C@H](NC(=O)OCc1ccccc1)C(=O)NCC1CC(Br)=NO1` (stereo partly drawn) [Compound 53, {(S)-1-[(3-Bromo-4,5-dihydro-isoxazol-5-ylmethyl)-carbamoyl]-ethyl}-carbamic acid benzyl ester] are 910 µM, 0.41 min⁻¹ and 450 min^−1M^−1.
In the same order, the values of `CC(=O)N[C@@H](Cc1ccccc1)C(=O)NCC1CC(Br)=NO1` (stereo partly drawn) [Compound 54, (S)-2-Acetylamino-N-(3-bromo-4,5-dihydro-isoxazol-5-ylmethyl)-3-phenyl-propionamide] are 2700 µM, 0.60 min⁻¹ and 220 min^−1M^−1.
Take `O=C(N[C@H](Cc1ccccc1)C(=O)NCC1CC(Br)=NO1)OCc1ccccc1` (stereo partly drawn) [Compound 55, {(R)-1-[(3-Bromo-4,5-dihydro-isoxazol-5-ylmethyl)-carbamoyl]-2-phenyl-ethyl}-carbamic acid benzyl ester]: the kinh was 0.29 min⁻¹.
`O=C(C[C@H](NC(=O)OCc1ccccc1)C(=O)NCC1CC(Br)=NO1)NCc1ccccc1` (stereo partly drawn) [Compound 56, {(S)-2-Benzylcarbamoyl-1-[(3-bromo-4,5-dihydro-isoxazol-5-ylmethyl)-carbamoyl]-ethyl}-carbamic acid benzyl ester]: the Ki stood at 240 µM, the kinh came to 0.54 min⁻¹ and the kinh/Ki amounted to 2300 min^−1M^−1.
On to `O=C(N[C@@H](Cc1c[nH]c2ccccc12)C(=O)NCC1CC(Br)=NO1)OCc1ccccc1` (stereo partly drawn) [Compound 57, [(S)-1-[(3-Bromo-4,5-dihydro-isoxazol-5-ylmethyl)-carbamoyl]-2-(1H-indol-3-yl)-ethyl]-carbamic acid benzyl ester], for which the kinh stood at 0.78 min⁻¹ and the kinh/Ki amounted to 2500 min^−1M^−1.
For the compound `CN(CC1CC(Br)=NO1)C(=O)[C@H](Cc1ccccc1)NC(=O)OCc1ccccc1` (stereo partly drawn) [Compound 58, {(S)-1-[(3-Bromo-4,5-dihydro-isoxazol-5-ylmethyl)-methyl-carbamoyl]-2-phenyl-ethyl}-carbamic acid benzyl ester], the Ki was 260 µM, the kinh amounted to 0.19 min⁻¹ and the kinh/Ki is given as 730 min^−1M^−1.
Turning to `O=C(NCC1CC(Br)=NO1)Nc1ccccc1` (stereo not drawn) [Compound 60, 1-(3-Bromo-4,5-dihydro-isoxazol-5-ylmethyl)-3-phenyl-urea], the kinh stood at 0.89 min⁻¹ and the kinh/Ki is recorded as 810 min^−1M^−1.
The like results for `O=C(NCC1CC(Br)=NO1)Nc1cc(C(F)(F)F)ccc1Cl` (stereo not drawn) [Compound 61, 1-(3-Bromo-4,5-dihydro-isoxazol-5-ylmethyl)-3-(2-chloro-5-trifluoromethyl-phenyl)-urea] were, in that order, 0.95 min⁻¹ and 1000 min^−1M^−1.
As to `O=C(NCC1CC(Br)=NO1)Nc1ccc(Cl)cc1C(F)(F)F` (stereo not drawn) [Compound 62, 1-(3-Bromo-4,5-dihydro-isoxazol-5-ylmethyl)-3-(4-chloro-2-trifluoromethyl-phenyl)-urea], the kinh was found to be 1.1 min⁻¹ and the kinh/Ki was 850 min^−1M^−1.
The like results for `O=C(NCC1CC(Br)=NO1)Nc1ccc(F)cc1` (stereo not drawn) [Compound 63, 1-(3-Bromo-4,5-dihydro-isoxazol-5-ylmethyl)-3-(4-fluoro-phenyl)-urea] were, in that order, 1.0 min⁻¹ and 770 min^−1M^−1.
As to `Cc1ccc(C)c(NC(=O)NCC2CC(Br)=NO2)c1` (stereo not drawn) [Compound 64, 1-(3-Bromo-4,5-dihydro-isoxazol-5-ylmethyl)-3-(2,5-dimethyl-phenyl)-urea], the kinh amounted to 0.97 min⁻¹ and the kinh/Ki is given as 1000 min^−1M^−1.
